This assay concerns amylase enzyme. Kind of assay: Amylase inhibition (salivary and intestinal amylase). The class given is biochemical. The note with it: amylase present in saliva and in the gut.

Regarding `O=C(/C=C/c1ccc(O)c(O)c1)O[C@@H]1C[C@](O)(C(=O)O)C[C@@H](O)[C@H]1O` [chlorogenic acid], the “Effect on amylase enzyme” value is listed as “blocks the amylase enzyme”.

The record behind these values is US8865134B2, “Chewing gum” (Med-Eq AS, priority 2005, dated 2014).
